These results are taken from US20260347373A1, “HETEROCYCLIC COMPOUNDS, COMPOSITIONS THEREOF, AND METHODS OF TREATMENT THEREWITH” (BeOne Medicines I GmbH, priority 2023, published 2026).

pIC50: −log10 of the molar value. Where two headings read alike, the source gives them in different places.

The target in experiment [1] is KRAS G12D (Homo sapiens, UniProt P01116, G12D). The experiment in a line: KRAS G12D Probe Displacement Assay (TR-FRET, GDP-loaded). It is filed as binding. From the text: (§1) The synthetic routes of probe 1 and 2, which have been disclosed in PCT/CN2022/070676, are hereby incorporated herein.
KRAS G12D, sequence (P01116 1-188 isoform P01116-2 G12D): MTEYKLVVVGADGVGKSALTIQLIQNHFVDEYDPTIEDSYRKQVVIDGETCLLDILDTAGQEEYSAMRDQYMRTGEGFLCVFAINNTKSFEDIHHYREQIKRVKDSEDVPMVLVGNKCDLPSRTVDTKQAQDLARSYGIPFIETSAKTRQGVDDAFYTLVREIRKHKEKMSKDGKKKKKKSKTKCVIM
The target in experiment [2] is WT KRAS (Homo sapiens, UniProt P01116). The experiment in a line: KRAS WT Probe Displacement Assay (TR-FRET, GDP-loaded). It is filed as binding.
WT KRAS, sequence (P01116 1-188 isoform P01116-2): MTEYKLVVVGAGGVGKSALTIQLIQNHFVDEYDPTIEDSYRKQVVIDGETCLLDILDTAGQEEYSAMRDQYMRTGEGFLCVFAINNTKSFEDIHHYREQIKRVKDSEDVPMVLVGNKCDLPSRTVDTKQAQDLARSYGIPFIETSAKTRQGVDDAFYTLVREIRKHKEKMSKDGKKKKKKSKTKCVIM
Excerpt: as §1

The mark [3] stands for this setting: KRAS G12D, read-out: KRAS^G12D Probe Displacement Assay IC50.
Where [4] appears, read: KRAS WT, read-out: KRAS^WT Probe Displacement Assay IC50.

For the molecule `Cc1cc(N)cc(-c2nc3c4c(nc(OCC5(CN6CCC=C(F)C6)CC5)nc4c2F)N2C[C@H]4CC[C@H](N4)[C@H]2CCO3)c1C(F)(F)F` [Example 179, 3-((6aR,7S,10R)-1-fluoro-13-((1-((5-fluoro-3,6-dihydropyridin-1(2H)-yl)methyl)cyclopropyl)methoxy)-5,6,6a,7,8,9,10,11-octahydro-4-oxa-3,11a,12,14,15-pentaaza-7,10-methanocyclohepta[4,5]cycloocta[1,2,3-de]naphthalen-2-yl)-5-methyl-4-(trifluoromethyl)aniline], the pIC50 in experiment [1] (setting [3]) is > 9.52; in experiment [2] (setting [4]), 6.00 to 8.52.

Regarding `Cc1cc(N)cc(-c2nc3c4c(nc(OCC5(CN6CCCC6)CC5)nc4c2F)N2C[C@H]4CC[C@H](N4)[C@H]2CCO3)c1C(F)(F)F` [Example 77, 3-((6aR,7S,10R)-1-fluoro-13-((1-(pyrrolidin-1-ylmethyl)cyclopropyl)methoxy)-5,6,6a,7,8,9,10,11-octahydro-4-oxa-3,11a,12,14,15-pentaaza-7,10-methanocyclohepta[4,5]cycloocta[1,2,3-de]naphthalen-2-yl)-5-methyl-4-(trifluoromethyl)aniline], the pIC50 in experiment [1] (setting [3]) was > 9.52; in experiment [2] (setting [4]), 6.00 to 8.52.

For the molecule `Cc1cc(N)cc(-c2nc3c4c(nc(OCC5(C)CC(F)CN(C6CCOCC6)C5)nc4c2F)N2C[C@H]4CC[C@H](N4)[C@H]2CCO3)c1C(F)(F)F` (single isomer, unassigned) [Example 235], the pIC50 in experiment [1] (setting [3]) was 8.52 to 9.52; in experiment [2] (setting [4]), 6.00 to 8.52.

As to `Cc1cc(N)cc(-c2nc3c4c(nc(OCC5(CN6CC=CC6)CC5)nc4c2F)N2C[C@H]4CC[C@H](N4)[C@H]2CCO3)c1C(F)(F)F` [Example 111, 3-((6aR,7S,10R)-13-((1-((2,5-dihydro-1H-pyrrol-1-yl)methyl)cyclopropyl)methoxy)-1-fluoro-5,6,6a,7,8,9,10,11-octahydro-4-oxa-3,11a,12,14,15-pentaaza-7,10-methanocyclohepta [4,5]cycloocta [1,2,3-de]naphthalen-2-yl)-5-methyl-4-(trifluoromethyl) aniline], the pIC50 is > 9.52 in experiment [1] (KRAS^G12D Probe Displacement Assay IC50, KRAS G12D) and 6.00 to 8.52 in experiment [2] (KRAS^WT Probe Displacement Assay IC50, KRAS WT).

Turning to `Cc1cc(N)cc(-c2nc3c4c(nc(OCC5(CN6CCC7(CC6)COC7)CC5)nc4c2F)N2C[C@H]4CC[C@H](N4)[C@H]2CCO3)c1C(F)(F)F` [Example 102, 3-((6aR,7S,10R)-13-((1-((2-oxa-7-azaspiro[3.5]nonan-7-yl)methyl)cyclopropyl)methoxy)-1-fluoro-5,6,6a,7,8,9,10,11-octahydro-4-oxa-3,11a,12,14,15-pentaaza[7,10]methanocyclohepta [4,5]cycloocta [1,2,3-de]naphthalen-2-yl)-5-methyl-4-(trifluoromethyl)aniline], the figures for the pIC50 in experiment [1] (setting [3]) and in experiment [2] (setting [4]) were > 9.52 and 8.52 to 9.52, respectively.

In the case of `[2H]C([2H])([2H])N1CC[C@H](OC)[C@H]1[C@H](C)Oc1nc2c3c(nc(-c4cc(N)cc(C)c4C(F)(F)F)c(F)c3n1)OCC[C@@H]1[C@@H]3CC[C@H](CN21)N3` [Example 142, 3-((6aR,7S,10R)-1-fluoro-13-((S)-1-((2R,3S)-3-methoxy-1-(methyl-d3)pyrrolidin-2-yl)ethoxy)-5,6,6a,7,8,9,10,11-octahydro-4-oxa-3,11a,12,14,15-pentaaza-7,10-methano-cyclohepta[4,5]cycloocta [1,2,3-de]naphthalen-2-yl)-5-methyl-4-(trifluoromethyl)aniline], the pIC50 in experiment [1] (setting [3]) was > 9.52; in experiment [2] (setting [4]) it was 6.00 to 8.52.

In the case of `[2H]C([2H])([2H])N1C[C@H](F)C[C@H]1[C@H](C)Oc1nc2c3c(nc(-c4cc(N)cc(C)c4C(F)(F)F)c(F)c3n1)OCC[C@@H]1[C@@H]3CC[C@H](CN21)N3` [Example 221, 3-((6aR,7S,10R)-1-fluoro-13-((S)-1-((2S,4R)-4-fluoro-1-(methyl-d3)pyrrolidin-2-yl)ethoxy)-5,6,6a,7,8,9,10,11-octahydro-4-oxa-3,11a,12,14,15-pentaaza-7,10-methanocyclohepta[4,5]cycloocta[1,2,3-de]naphthalen-2-yl)-5-methyl-4-(trifluoromethyl)aniline], the pIC50 in experiment [1] (setting [3]) is > 9.52; in experiment [2] (setting [4]), 6.00 to 8.52.

Take `Cc1cc(N)cc(-c2nc3c4c(nc(OC[C@@]56C[C@H](F)CN5C[C@H](F)C6)nc4c2F)N2C[C@H]4CC[C@H](N4)[C@H]2CCO3)c1C(F)(F)F` [Example 213, 3-((6aR,7S,10R)-13-(((2R,6S,7as)-2,6-difluorotetrahydro-1H-pyrrolizin-7a(5H)-yl)methoxy)-1-fluoro-5,6,6a,7,8,9,10,11-octahydro-4-oxa-3,11a,12,14,15-pentaaza-7,10-methanocyclohepta[4,5]cycloocta[1,2,3-de]naphthalen-2-yl)-5-methyl-4-(trifluoromethyl)aniline]: the pIC50 in experiment [1] (setting [3]) was 8.52 to 9.52; in experiment [2] (setting [4]) it was 6.00 to 8.52.

Turning to `Cc1cc(N)cc(-c2nc3c4c(nc(OC[C@]56CCCN5CC(F)(F)C6)nc4c2F)N2C[C@H]4CC[C@H](N4)[C@H]2CCO3)c1C(F)(F)F` [Example 34, 3-((6aR,7S,10R)-13-(((R)-2,2-difluorotetrahydro-1H-pyrrolizin-7a(5H)-yl)methoxy)-1-fluoro-5,6,6a,7,8,9,10,11-octahydro-4-oxa-3,11a,12,14,15-pentaaza-7,10-methanocyclohepta[4,5]cycloocta [1,2,3-de]naphthalen-2-yl)-5-methyl-4-(trifluoromethyl)aniline], the negative-log IC50 (pIC50) in experiment [1] (setting [3]) is 8.52 to 9.52; in experiment [2] (setting [4]) it was 6.00 to 8.52.

For `COC1CN(C)CC(C)(COc2nc3c4c(nc(-c5cc(N)cc(C)c5C(F)(F)F)c(F)c4n2)OCC[C@@H]2[C@@H]4CC[C@H](CN32)N4)C1` (stereo partly drawn) [Example 126, 3-((6aR,7S,10R)-1-fluoro-13-((5-methoxy-1,3-dimethylpiperidin-3-yl)methoxy)-5,6,6a,7,8,9,10,11-octahydro-4-oxa-3,11a,12,14,15-pentaaza-7,10-methanocyclohepta[4,5]cycloocta[1,2,3-de]naphthalen-2-yl)-5-methyl-4-(trifluoromethyl)aniline], the pIC50 is 8.52 to 9.52 in experiment [1] (setting [3]) and 6.00 to 8.52 in experiment [2] (setting [4]).

On to `Cc1cc(N)cc(-c2nc3c4c(nc(OCC5(CN6CCC(OC(F)(F)F)CC6)CC5)nc4c2F)N2C[C@H]4CC[C@H](N4)[C@H]2CCO3)c1C(F)(F)F` [Example 177, 3-((6aR,7S,10R)-1-fluoro-13-((1-((4-(trifluoromethoxy)piperidin-1-yl)methyl)cyclopropyl)methoxy)-5,6,6a,7,8,9,10,11-octahydro-4-oxa-3,11a,12,14,15-pentaaza-7,10-methanocyclohepta[4,5]cycloocta[1,2,3-de]naphthalen-2-yl)-5-methyl-4-(trifluoromethyl)aniline], for which the pIC50 is > 9.52 in experiment [1] (setting [3]) and 8.52 to 9.52 in experiment [2] (setting [4]).

As for `Cc1cc(N)cc(-c2nc3c4c(nc(OCC5(CN6[C@@H]7CC[C@H]6COC7)CC5)nc4c2F)N2C[C@H]4CC[C@H](N4)[C@H]2CCO3)c1C(F)(F)F` [Example 107, 3-((6aR,7S,10R)-13-((1-(((1R,5S)-3-oxa-8-azabicyclo [3.2.1]octan-8-yl)methyl)cyclopropyl)methoxy)-1-fluoro-5,6,6a,7,8,9,10,11-octahydro-4-oxa-3,11a,12,14,15-pentaaza-7,10-methanocyclohepta [4,5]cycloocta [1,2,3-de]naphthalen-2-yl)-5-methyl-4-(trifluoromethyl)aniline], the negative logarithm of the IC50 (pIC50) in experiment [1] (setting [3]) is > 9.52; in experiment [2] (setting [4]), 6.00 to 8.52.

As to `Cc1cc(N)cc(-c2nc3c4c(nc(OCC5(CN6CC(C)(O)C6)CC5)nc4c2F)N2C[C@H]4CC[C@H](N4)[C@H]2CCO3)c1C(F)(F)F` [Example 81, 1-((1-((((6aR,7S, 10R)-2-(5-amino-3-methyl-2-(trifluoromethyl)phenyl)-1-fluoro-5,6,6a,7,8,9,10,11-octahydro-4-oxa-3,11a,12,14,15-pentaaza-7,10-methanocyclohepta [4,5]cycloocta [1,2,3-de]naphthalen-13-yl)oxy)methyl)cyclopropyl)methyl)-3-methylazetidin-3-ol], the pIC50 in experiment [1] (setting [3]) was > 9.52; in experiment [2] (setting [4]) it was 6.00 to 8.52.

For the molecule `Cc1cc(N)cc(-c2nc3c4c(nc(OC[C@@H]5OC[C@H]5N(C)C)nc4c2F)N2C[C@H]4CC[C@H](N4)[C@H]2CCO3)c1C(F)(F)F` [Example 130, (2R,3R)-2-((((6aR,7S,10R)-2-(5-amino-3-methyl-2-(trifluoromethyl)phenyl)-1-fluoro-5,6,6a,7,8,9,10,11-octahydro-4-oxa-3,11a,12,14,15-pentaaza-7,10-methanocyclohepta[4,5]cycloocta [1,2,3-de]naphthalen-13-yl)oxy)methyl)-N,N-dimethyloxetan-3-amine], the values for the pIC50 in experiment [1] (setting [3]) and in experiment [2] (setting [4]) were 8.52 to 9.52 and 6.00 to 8.52, respectively.

In the case of `Cc1cc(N)cc(-c2nc3c4c(nc(OCC5(CN(C)C)CC5(F)F)nc4c2F)N2C[C@H]4CC[C@H](N4)[C@H]2CCO3)c1C(F)(F)F` (stereo partly shown) [Example 16], the pIC50 was > 9.52 in experiment [1] (setting [3]) and 6.00 to 8.52 in experiment [2] (setting [4]).

Turning to `Cc1cc(N)cc(-c2nc3c4c(nc(OCC5(CN6CCCC(O)(C(F)(F)F)C6)CC5)nc4c2F)N2C[C@H]4CC[C@H](N4)[C@H]2CCO3)c1C(F)(F)F` (stereo partly drawn) [Example 117, 1-((1-((((6aR,7S,10R)-2-(5-amino-3-methyl-2-(trifluoromethyl)phenyl)-1-fluoro-5,6,6a,7,8,9,10,11-octahydro-4-oxa-3,11a,12,14,15-pentaaza-7,10-methanocyclohepta [4,5]cycloocta [1,2,3-de]naphthalen-13-yl)oxy)methyl)cyclopropyl)methyl)-3-(trifluoromethyl) piperidin-3-ol], the results for the negative-log IC50 (pIC50) in experiment [1] (setting [3]) and in experiment [2] (setting [4]) were > 9.52 and 6.00 to 8.52, respectively.

For `C[C@H](Oc1nc2c3c(nc(-c4cc(N)cc(Cl)c4C(F)(F)F)c(F)c3n1)OCC[C@@H]1[C@@H]3CC[C@H](CN21)N3)[C@@H]1CCCN1C` [Example 140, 3-chloro-5-((6aR,7S,10R)-1-fluoro-13-((S)-1-((S)-1-methylpyrrolidin-2-yl)ethoxy)-5,6,6a,7,8,9,10,11-octahydro-4-oxa-3,11a,12,14,15-pentaaza-7,10-methano-cyclohepta[4,5]cycloocta [1,2,3-de]naphthalen-2-yl)-4-(trifluoromethyl)aniline], the pIC50 in experiment [1] (setting [3]) is > 9.52; in experiment [2] (setting [4]), 6.00 to 8.52.
